Our source for the GI50 and TGI values is PubChem BioAssay (NCI).

What all share (assay): NCI tumour cell line growth inhibition, 48 h
In experiment [1] the test system is A549 NSCLC.
Experiment [2] concerns NCI-H23 lung.
Experiment [3] deals with HCC-2998 colon.
The test system of experiment [4] is HT29 colon.
Experiment [5] relates to SK-MEL-5 melanoma.
Experiment [6] has as its system RPMI-8226 leukemia.
Experiment [7] has as its system MALME-3M melanoma.
Experiment [8] has as its system SF-539 CNS.
The test system of experiment [9] is NCI-H226 lung.
Experiment [10] relates to ACHN renal.

Each structure is given as a SMILES string. Values joined by “and” are separate entries in the source; they are usually repeats but may differ in a detail not shown here. Identical values can stand only once.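 Dose response: 5 concentrations. Exposure: 48 h. Format: 96-well plates. Endpoint: linear interpolation; highest concentration if not reached. Here, GI50 denotes the concentration required for 50% inhibition of growth. At the TGI there is no net growth.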

On to `CNc1ccccc1C(=O)N/N=C/C=C/c1ccccc1`, for which the GI50 in [1] is 1.06 µM; in [2] it was 7.93 µM; in experiment [3] it was 8.82 µM; in experiment [4], 0.373 µM; in experiment [5], 0.849 µM; in experiment [6], 2.68 µM. Besides, the GI50 is 9.91 µM in experiment [7], 1.09 µM in experiment [8], 10 µM in experiment [9] and 11.8 µM in experiment [10]. In addition, the TGI is above 100 µM in [1]; above 100 µM in experiment [2]; 36.3 µM in experiment [3]; 12.9 µM in [4]; 31.3 µM in experiment [5]; above 100 µM in experiment [6]. Further, the TGI is 97.4 µM in experiment [7], 4.91 µM in experiment [8], above 100 µM in [9] and above 100 µM in [10].

In the case of `CS(=O)(=O)c1ccc(Oc2cc(F)cc(C#N)c2)c2c1[C@H](O)[C@H](F)[C@@H]2F`, the GI50 in [1], in [2], in experiment [3], in experiment [4], in experiment [5] and in experiment [6] was above 100 µM in each case. Besides, the GI50 in experiment [7], in experiment [8], in experiment [9] and in experiment [10] was above 100 µM throughout. In addition, the TGI in [1], in [2], in experiment [3], in [4], in [5] and in [6] was above 100 µM throughout. Further, the TGI in experiment [7], in experiment [8], in experiment [9] and in [10] was above 100 µM each time.

As to `CCNC(=O)C[C@@H]1N=C(c2ccc(Cl)cc2)c2cc(OC)ccc2-n2c(C)nnc21`, the GI50 in experiment [1] was 13.1 µM; in experiment [2], 13.5 µM; in [3], 5.77 µM; in [4], 1.02 µM; in experiment [6] it was 0.367 µM; in experiment [7], 3.49 µM. In addition, the GI50 was 2.33 µM in [8], above 32.8 µM in experiment [9] and 7.4 µM in [10]. Besides, the TGI was above 100 µM in experiment [1]; above 100 µM in experiment [2]; above 100 µM in experiment [3]; above 100 µM in experiment [4]; above 100 µM in experiment [5]; 5.74 µM in experiment [6]. Besides, the TGI in [7], in [8], in experiment [9] and in experiment [10] was above 100 µM in each case.

For the molecule `CC(C)(C)[Si](C)(C)OCC1CCC(n2cnc3c(NC(=O)c4ccccc4)ncnc32)O1` (stereo unspecified), the TGI in experiment [1] came to 39.9 µM; in experiment [2], 37.4 µM; in experiment [3] it was 36.2 µM; in experiment [4] it was 33.6 µM; in experiment [5] it was 23.7 µM; in [6], 68.5 µM. Also, the TGI amounted to 34.3 µM in experiment [7], 32.9 µM in [8], 34.6 µM in experiment [9] and 40.3 µM in experiment [10].

As for `COc1cc(/C=C(/C)[N+](=O)[O-])ccc1O`, the GI50 in [1] was 3.94 µM and 2.5 µM; in [2] it was 2.05 µM and 2.09 µM; in [3], 1.77 µM and 1.68 µM; in experiment [4], 2.63 µM; in experiment [5], 1.91 µM and 1.9 µM; in experiment [6] it was 0.737 µM and 1.73 µM. Also, the GI50 in experiment [7] was 2 µM and 1.53 µM; in [8], 2 µM and 1.81 µM; in experiment [9], 2.58 µM and 4.07 µM; in [10] it was 2.38 µM and 1.9 µM. In addition, the TGI in experiment [1] was 14.6 µM and 7.07 µM; in experiment [2], 5.23 µM; in experiment [3], 3.28 µM and 3.08 µM; in [4] it was 6.09 µM; in [5] it was 3.92 µM and 3.57 µM; in [6] it was 2.53 µM and 4.25 µM. Further, the TGI in [7] was 4.08 µM and 3.58 µM; in [8], 4 µM and 3.68 µM; in experiment [9] it was 6.96 µM and 14.2 µM; in experiment [10], 5.44 µM and 4 µM.

On to `O=C1OC(c2ccco2)=N/C1=C\c1ccc(Cl)c(Cl)c1`, for which the TGI in [1], in experiment [2], in [3], in experiment [4], in experiment [5] and in [6] was above 100 µM throughout. In addition, the TGI in [7], in experiment [8], in experiment [9] and in [10] was above 100 µM each time.

Regarding `C=C1C(=O)O[C@H]2[C@H]1CC/C(COC(=O)C(=O)c1c[nH]c3ccccc13)=C\CC[C@@]1(C)O[C@@H]21`, the GI50 is 2.27 µM in experiment [1]; 3.92 µM in experiment [2]; 1.95 µM in [3]; 1.21 µM in experiment [4]; 2.06 µM in [5]; 2.07 µM in experiment [6]. Besides, the GI50 in experiment [7] was 2.09 µM; in [8] it was 1.75 µM; in experiment [9] it was 1.98 µM; in experiment [10] it was 2.13 µM. The TGI in experiment [1] was found to be 6.08 µM; in experiment [2], 16 µM; in experiment [3], 4.02 µM; in experiment [4], 2.68 µM; in experiment [5] it was 4.13 µM; in [6] it was 10.9 µM. The TGI was determined as 4.33 µM in experiment [7], 3.76 µM in [8], 3.89 µM in experiment [9] and 6.1 µM in experiment [10].

On to `Cn1ccnc1C(=O)/C=C/c1ccc(CC(=O)Nc2ccc(Cl)cc2)cc1`, for which the GI50 in experiment [1] was 11.5 µM; in experiment [2], 2.04 µM; in experiment [3], 3.42 µM; in experiment [4] it was 0.889 µM; in experiment [5], 14.4 µM; in experiment [6] it was 0.959 µM. Besides, the GI50 in [7] is 14.2 µM; in experiment [8], 6.4 µM; in [9] it was 7.43 µM; in [10], 15 µM. For the same molecule, the TGI in experiment [1], in experiment [2], in [3], in experiment [4], in experiment [5] and in experiment [6] was above 25 µM in each case. Further, the TGI in [7], in [8], in experiment [9] and in [10] was above 25 µM in each case.

On to `O=C(/C=C/c1ccco1)c1ccc(Nc2nc(Nc3ccc(F)cc3)nc(Nc3ccc(Cl)cc3)n2)cc1`, for which the GI50 is 22.3 µM in experiment [1]; 17.9 µM in experiment [2]; 38.1 µM in [3]; 15.6 µM in experiment [4]; 23.7 µM in experiment [5]; 2.75 µM in experiment [6]. Moreover, the GI50 was 31.9 µM in experiment [7], 14.2 µM in [8], above 35.4 µM in experiment [9] and above 45.2 µM in [10]. In addition, the TGI in experiment [1] was above 100 µM; in experiment [2], above 63.4 µM; in [3] it was above 100 µM; in experiment [4], above 89.7 µM; in experiment [5] it was above 100 µM; in experiment [6], above 82.4 µM. Also, the TGI in experiment [7] is above 66.2 µM; in experiment [8], 28.3 µM; in experiment [9], above 82.2 µM; in experiment [10], above 78.9 µM.

Take `O=C(Nc1ccc(Cl)c([N+](=O)[O-])c1)Nc1nc2ccccc2s1`: the GI50 in [1] was 3.37 µM; in experiment [2], 2.4 µM; in [3], 3.03 µM; in experiment [4], 3.51 µM; in experiment [5], 1.88 µM; in [6], 2.93 µM. The GI50 was 2.62 µM in [7], 3.77 µM in experiment [8], 4.06 µM in experiment [9] and 3.34 µM in experiment [10]. Further, the TGI in [1] was determined as 13 µM; in [2], 9.05 µM; in experiment [3], 13.1 µM; in [4], 11.6 µM; in [5], 4.17 µM; in [6], 10.5 µM. The TGI is 7.36 µM in experiment [7], 16.9 µM in experiment [8], 17.3 µM in [9] and 12.8 µM in [10].

For the molecule `O=C1NC(=O)C(C(=O)C(=O)Nc2ccc(Br)cc2)C(=O)N1`, the TGI in experiment [1], in [2], in [3], in experiment [4], in experiment [5] and in [6] was above 100 µM each time. In addition, the TGI in experiment [7], in [8], in experiment [9] and in [10] was above 100 µM throughout.

With `CCN1C(=O)C/C(=C\C(C)=O)Nc2ccccc21`, the TGI in experiment [1] is above 100 µM; in experiment [2], above 100 µM; in experiment [3] it was above 100 µM; in [4], above 100 µM; in experiment [5], above 31.6 µM; in experiment [6] it was above 100 µM. In addition, the TGI in [7], in experiment [8], in experiment [9] and in experiment [10] was above 100 µM in each case. Also, the GI50 in [6] and in [10] was above 100 µM throughout.
